Columns and labels:
[1] = test system: LPS-stimulated TNFα production in THP-1 cells; experiment: LPS-stimulated TNFα production inhibition test using human acute monocytic leukemia cell strain THP-1; format: cell-based; details: Homo sapiens, LPS 2.5 ng/mL, average values
Description: By the THP-1 assay, influence of a test compound on the TNFα production induced by LPS stimulation can be evaluated. The THP-1 cells (ATCC, Cat. TIB-202) were inoculated on a 96-well plate at a density of 1×10^5 cells/160 μL/well, a test compound was added in a volume of 20 μL, and the plate was incubated at 37° C. for 1 hour in a 5% CO2 incubator. Then, LPS in a volume of 20 μL (final concentration 2.5 ng/mL, Sigma, Cat. L2630) was added, and the plate was further incubated for 4 hours. After the incubation, the plate was centrifuged, and 100 μL of the supernatant was taken from each well, and used for evaluation of the amount of TNFα using HTRF (Cisbio, Cat. 62TNFPEB). In the measurement of the amount of TNFα, the supernatant was diluted twice with the medium, and then added to wells of a 384-well plate in a volume of 10 μL, then anti-TNFα-cryptate (5 μL), and anti-TNFα-XL665 (5 μL) were added, and the plate was left standing overnight. The fluorescence intensity ratio for the wavelengths of 620 and 665 nm (620 nm/665 nm) was measured with a microplate reader, and the amount of TNFα in the supernatant was calculated by using a calibration curve. The TNFα production suppression ratio observed with no addition of LPS was defined to be 100%, the TNFα production suppression ratio observed with no addition of the test compound was defined to be 0%, and IC50 of the test compound was calculated by using the 4-parameter logistic model of the data analysis software XLfit (ID Business Solutions Ltd.).

[2] = molecular target: human IRAK-4 (Homo sapiens (Human), UniProt Q9NWZ3); experiment: Measurement of human IRAK-4 inhibitory activity (TR-FRET, peptide substrate phosphorylation, 10 μM ATP); format: biochemical; details: 1 nM IRAK-4, 10 μM ATP, 23° C., 30 minutes; average values
Sequence of human IRAK-4 (Q9NWZ3 whole entry): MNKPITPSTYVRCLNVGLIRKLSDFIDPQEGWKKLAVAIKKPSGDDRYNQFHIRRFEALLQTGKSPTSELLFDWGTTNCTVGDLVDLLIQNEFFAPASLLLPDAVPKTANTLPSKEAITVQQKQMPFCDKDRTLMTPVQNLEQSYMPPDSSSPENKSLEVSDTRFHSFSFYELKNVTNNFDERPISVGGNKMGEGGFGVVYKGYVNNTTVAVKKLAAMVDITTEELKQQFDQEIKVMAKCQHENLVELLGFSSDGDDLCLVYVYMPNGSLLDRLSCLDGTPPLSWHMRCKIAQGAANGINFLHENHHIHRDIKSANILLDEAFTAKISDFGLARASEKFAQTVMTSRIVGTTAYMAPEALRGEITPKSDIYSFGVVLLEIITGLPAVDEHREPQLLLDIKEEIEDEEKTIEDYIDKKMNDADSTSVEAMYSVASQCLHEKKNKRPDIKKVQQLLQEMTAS
Description: For the measurement of the activity of the human IRAK-4 (Invitrogen, Cat. PV3362), phosphorylation of the IRAK-4 peptide substrate (biotin-KKKKRFSFKKSFKC) by the enzyme in the presence of 10 μM ATP (Sigma-Aldrich, Cat. A7699) was measured by the TR-FRET method. The enzymatic reaction was performed in a reaction buffer containing 50 mM HEPES (pH 7.2), 1 mM DTT, 0.1 mM Na3VO4, 5 mM MgCl2, 1 mM MnCl2, and 0.1% bovine serum albumin. For the measurement of the IRAK-4 inhibitory activity, a test compound was added to the reaction buffer containing 1 nM IRAK-4, 0.5 μM peptide substrate, and 10 μM ATP, and the mixture was incubated at 23° C. for 30 minutes. Then, a detection solution containing an antibody labeled with europium cryptate (0.3 μg/mL, the antibody was prepared by using the IRAK-4 peptide substrate as the antigen), streptavidin-XL665 (2 μg/mL, CisBio, Cat. 610SAXLB), 50 mM HEPES (pH 7.2), 0.1% BSA, 120 mM KF, and 66.7 mM EDTA (all the concentrations of the reagents are final concentrations) was added to terminate the reaction, and then the mixture was further incubated at 23° C. for 60 minutes. Fluorescence intensity was measured at wavelengths of 665 nm and 620 nm with a microplate reader, and the enzymatic activity was calculated as the ratio of fluorescence intensities at 665 nm and 620 nm (665 nm/620 nm).

Row | Compound | IC50 ([1]; THP-1, 4 h) [nM] | IC50 [2] [nM] | IC50 ([1]; 4 hours) [nM]
1 | O=C(Nc1nc2ccc(-c3cnc(CO[C@H]4CCC[C@@H]4O)nc3)cc2s1)C1CC(N2CC3CC(C2)O3)C1 (stereo partly drawn) [b-02-09] |  | 2.42 | 142
2 | O=C(Nc1nc2ccc(-c3cnc(CO[C@H]4CCC[C@@H]4O)nc3)cc2s1)C1CC(N2CCC(F)CC2)C1 (stereo partly drawn) [b-02-11] | 152 | 2.87 | 
3 | O=C(Nc1nc2ccc(-c3cnc(CO[C@H]4CCC[C@@H]4O)nc3)cc2s1)C1CC(N2CC(F)(F)C2)C1 (stereo partly drawn) [b-02-12] | 170 | 3.37 | 
4 | O=C(Nc1nc2ccc(-c3cnc(CO[C@H]4CCC[C@@H]4O)nc3)cc2s1)C1CC(N2CCC(F)(F)C2)C1 (stereo partly drawn) [b-02-13] | 175 | 3.77 | 
5 | CO[C@@H]1CCN(C2CC(C(=O)Nc3nc4ccc(-c5cnc(CO[C@H]6CCC[C@@H]6O)nc5)cc4s3)C2)C1 (stereo partly drawn) [b-02-15] | 157 | 2.25 | 
6 | O=C(Nc1nc2ccc(-c3cnc(CO[C@H]4CCC[C@@H]4O)nc3)cc2s1)C1CC(N2CCC[C@@H](F)C2)C1 (stereo partly drawn) [b-02-16] | 107 | 2.01 | 
7 | CC1(C)CN(C2CC(C(=O)Nc3nc4ccc(-c5cnc(CO[C@H]6CCC[C@@H]6O)nc5)cc4s3)C2)CCO1 (stereo partly drawn) [b-02-18] | 164 | 2.92 | 
8 | C[C@@H]1CN(C2CC(C(=O)Nc3nc4ccc(-c5cnc(CO[C@H]6CCC[C@@H]6O)nc5)cc4s3)C2)C[C@H](C)O1 (stereo partly drawn) [b-02-19] | 144 | 2.54 | 
9 | CC[C@H]1COCCN1C1CC(C(=O)Nc2nc3ccc(-c4cnc(CO[C@H]5CCC[C@@H]5O)nc4)cc3s2)C1 (stereo partly drawn) [b-02-20] | 78 | 4.28 | 
10 | CN1CCN(C2CC(C(=O)Nc3nc4ccc(-c5cnc(CO[C@H]6CCC[C@@H]6O)nc5)cc4s3)C2)CC1 (stereo partly drawn) [b-02-22] | 208 | 1.89 | 
11 | O=C(Nc1nc2ccc(-c3cnc(CO[C@H]4CCC[C@@H]4O)nc3)cc2s1)C1CC(N2CCN(CC(F)(F)F)CC2)C1 (stereo partly drawn) [b-02-23] | 166 | 2.52 | 
12 | COCCN1CCN(C2CC(C(=O)Nc3nc4ccc(-c5cnc(CO[C@H]6CCC[C@@H]6O)nc5)cc4s3)C2)CC1 (stereo partly drawn) [b-02-25] | 199 | 1.98 | 
13 | C[C@@H]1CCCN1C1CC(C(=O)Nc2nc3ccc(-c4cnc(CO[C@H]5CCC[C@@H]5O)nc4)cc3s2)C1 (stereo partly drawn) [b-02-27] | 159 | 1.48 | 
14 | O=C(Nc1nc2ccc(-c3cnc(CO[C@H]4CCC[C@@H]4O)nc3)cc2s1)C1CC(NC23CC(C2)C3)C1 (stereo partly drawn) [b-02-29] | 124 | 2.43 | 
15 | O=C(Nc1nc2ccc(-c3cnc(CO[C@H]4CCC[C@@H]4O)nc3)cc2s1)C1CC(N2CCOC(C3CC3)C2)C1 (stereo partly drawn) [b-02-30] | 137 | 4.12 | 
16 | O=C(Nc1nc2ccc(-c3cnc(CO[C@H]4CCC[C@@H]4O)nc3)cc2s1)C1CC(N2C[C@@H]3C[C@H]2CO3)C1 (stereo partly drawn) [b-02-31] | 194 | 2.36 | 
17 | O=C(Nc1nc2ccc(-c3cnc(CO[C@H]4CCC[C@@H]4O)nc3)cc2s1)C1CC(N2CCOCC23CCC3)C1 (stereo partly drawn) [b-02-33] | 51 | 1.63 | 
18 | O=C(Nc1nc2ccc(-c3cnc(CO[C@H]4CCC[C@@H]4O)nc3)cc2s1)C1CC(N2CCOCC23CC3)C1 (stereo partly drawn) [b-02-37] | 94 | 2.22 | 
19 | CC(=O)N1CCN(C2CC(C(=O)Nc3nc4ccc(-c5cnc(CO[C@H]6CCC[C@@H]6O)nc5)cc4s3)C2)CC1 (stereo partly drawn) [b-02-38] | 150 | 2.98 | 
20 | COC[C@@H]1CCN(C2CC(C(=O)Nc3nc4ccc(-c5cnc(CO[C@H]6CCC[C@@H]6O)nc5)cc4s3)C2)C1 (stereo partly drawn) [b-02-39] | 182 | 1.9 | 
21 | CN1CCN(C2CC(C(=O)Nc3nc4ccc(-c5cnc(CO[C@H]6CCC[C@@H]6O)nc5)cc4s3)C2)CC(F)(F)C1 (stereo partly drawn) [b-02-41] | 160 | 2.86 | 
22 | N#CC12CC(NC3CC(C(=O)Nc4nc5ccc(-c6cnc(CO[C@H]7CCC[C@@H]7O)nc6)cc5s4)C3)(C1)C2 (stereo partly drawn) [b-02-42] | 123 | 1.93 | 
23 | O=C(Nc1nc2ccc(-c3cnc(CO[C@H]4CCC[C@@H]4O)nc3)cc2s1)C1CC(NC2CC2)C1 (stereo partly drawn) [b-02-47] | 110 | 1.75 | 
24 | CC12CC(NC3CC(C(=O)Nc4nc5ccc(-c6cnc(CO[C@H]7CCC[C@@H]7O)nc6)cc5s4)C3)(C1)C2 (stereo partly drawn) [b-02-49] | 119 | 2.52 | 
25 | O=C(Nc1nc2ccc(-c3cnc(CO[C@H]4CCC[C@@H]4O)nc3)cc2s1)C1CC(NC2CCCC2)C1 (stereo partly drawn) [b-02-50] | 144 | 1.93 | 

Continued by falling IC50 ([1]; THP-1, 4 h), values first:

Row | IC50 ([1]; THP-1, 4 h) [nM] | IC50 [2] [nM] | Compound | IC50 ([1]; 4 hours) [nM]
26 | 180 | 1.91 | O=C(Nc1nc2ccc(-c3cnc(CO[C@H]4CCC[C@@H]4O)nc3)cc2s1)C1CC(N2CCOCC3(CC3)C2)C1 (stereo partly drawn) [b-02-24] | 
27 | 171 | 3.55 | CC1CC(F)(F)CN1C1CC(C(=O)Nc2nc3ccc(-c4cnc(CO[C@H]5CCC[C@@H]5O)nc4)cc3s2)C1 (stereo partly drawn) [b-02-46] | 
28 | 164 | 2.41 | CO[C@H]1CCN(C2CC(C(=O)Nc3nc4ccc(-c5cnc(CO[C@H]6CCC[C@@H]6O)nc5)cc4s3)C2)C1 (stereo partly drawn) [b-02-14] | 
29 | 145 | 1.82 | CC1COCCCN1C1CC(C(=O)Nc2nc3ccc(-c4cnc(CO[C@H]5CCC[C@@H]5O)nc4)cc3s2)C1 (stereo partly drawn) [b-02-36] | 
30 | 143 | 3.93 | O=C(Nc1nc2ccc(-c3cnc(CO[C@H]4CCC[C@@H]4O)nc3)cc2s1)C1CC(N2CCC[C@H]2C(F)(F)F)C1 (stereo partly drawn) [b-02-44] | 
31 | 143 | 2.03 | O=C(Nc1nc2ccc(-c3cnc(CO[C@H]4CCC[C@@H]4O)nc3)cc2s1)C1CC(NC2CCC2)C1 (stereo partly drawn) [b-02-48] | 
32 | 141 | 3.94 | O=C(Nc1nc2ccc(-c3cnc(CO[C@H]4CCC[C@@H]4O)nc3)cc2s1)C1CC(N2CCCC(F)(F)C2)C1 (stereo partly drawn) [b-02-10] | 
33 | 140 | 2.52 | O=C(Nc1nc2ccc(-c3cnc(CO[C@H]4CCC[C@@H]4O)nc3)cc2s1)C1CC(N2CCOCC(F)(F)C2)C1 (stereo partly drawn) [b-02-35] | 
34 | 139 | 1.62 | O=C(Nc1nc2ccc(-c3cnc(CO[C@H]4CCC[C@@H]4O)nc3)cc2s1)C1CC(N2CC[C@H](O)C2)C1 (stereo partly drawn) [b-02-40] | 
35 | 126 | 1.75 | C[C@H]1CCCN1C1CC(C(=O)Nc2nc3ccc(-c4cnc(CO[C@H]5CCC[C@@H]5O)nc4)cc3s2)C1 (stereo partly drawn) [b-02-26] | 
36 | 123 | 3.1 | O=C(Nc1nc2ccc(-c3cnc(CO[C@H]4CCC[C@@H]4O)nc3)cc2s1)C1CC(N2CCC[C@@H]2C(F)(F)F)C1 (stereo partly drawn) [b-02-43] | 
37 | 120 | 1.59 | O=C(Nc1nc2ccc(-c3cnc(CO[C@H]4CCC[C@@H]4O)nc3)cc2s1)C1CC(N2CCC[C@H](F)C2)C1 (stereo partly drawn) [b-02-17] | 
38 | 116 | 2.52 | CC(C)[C@@H]1COCCN1C1CC(C(=O)Nc2nc3ccc(-c4cnc(CO[C@H]5CCC[C@@H]5O)nc4)cc3s2)C1 (stereo partly drawn) [b-02-34] | 
39 | 113 | 2.76 | C[C@@H]1CN(C2CC(C(=O)Nc3nc4ccc(-c5cnc(CO[C@H]6CCC[C@@H]6O)nc5)cc4s3)C2)CCO1 (stereo partly drawn) [b-02-08] | 
40 | 103 | 2.17 | O=C(Nc1nc2ccc(-c3cnc(CO[C@H]4CCC[C@@H]4O)nc3)cc2s1)C1CC(N2CCN(C3CC3)CC2)C1 (stereo partly drawn) [b-02-28] | 
41 | 66 | 2.12 | CC[C@@H]1COCCN1C1CC(C(=O)Nc2nc3ccc(-c4cnc(CO[C@H]5CCC[C@@H]5O)nc4)cc3s2)C1 (stereo partly drawn) [b-02-21] | 
42 | 41 | 2.37 | CC(C)[C@H]1COCCN1C1CC(C(=O)Nc2nc3ccc(-c4cnc(CO[C@H]5CCC[C@@H]5O)nc4)cc3s2)C1 (stereo partly drawn) [b-02-32] | 

Source: patent publication US20240025893A1, “PYRIMIDINE-AND NITROGEN-CONTAINING BICYCLIC COMPOUND” (Asahi Kasei Pharma Corporation, priority 2020, published 2024)
